Experiments:
[1] = Inhibitory activity against cytomegalovirus (CMV) protease was determined using quenched fluorescence assay
[2] = Inhibitory activity against Varicella Zoster Virus (VZV) protease was determined using quenched fluorescence assay

| SMILES | IC50 [1] [nM] | IC50 [2] [nM] |
| --- | --- | --- |
| Cc1csc2nc([C@H](C)NC(=O)/C=C/c3c(F)cccc3Cl)oc(=O)c12 [(E)-3-(2-Chloro-6-fluoro-phenyl)-N-[(S)-1-(5-methyl-4-oxo-4H-thieno[2,3-d][1,3]oxazin-2-yl)-ethyl]-acrylamide] | 2000 | 36 |
| Cc1csc2nc([C@H](C)NC(=O)/C=C/c3ccccc3)oc(=O)c12 [(E)-N-[(S)-1-(5-Methyl-4-oxo-4H-thieno[2,3-d][1,3]oxazin-2-yl)-ethyl]-3-phenyl-acrylamide] | 500 | 38 |
| Cc1csc2nc([C@H](C)NC(=O)/C=C/c3ccccc3[N+](=O)[O-])oc(=O)c12 [(E)-N-[(S)-1-(5-Methyl-4-oxo-4H-thieno[2,3-d][1,3]oxazin-2-yl)-ethyl]-3-(2-nitro-phenyl)-acrylamide] | 2200 | 76 |
| Cc1csc2nc([C@H](C)NC(=O)/C=C/c3ccc(Br)s3)oc(=O)c12 [(E)-3-(5-Bromo-thiophen-2-yl)-N-[(S)-1-(5-methyl-4-oxo-4H-thieno[2,3-d][1,3]oxazin-2-yl)-ethyl]-acrylamide] | 210 | 8 |
| Cc1csc2nc([C@H](C)NC(=O)C=C(c3ccccc3)c3ccccc3)oc(=O)c12 [N-[(S)-1-(5-Methyl-4-oxo-4H-thieno[2,3-d][1,3]oxazin-2-yl)-ethyl]-3,3-diphenyl-acrylamide] | 910 | 37 |
| Cc1csc2nc([C@H](C)NC(=O)/C=C/c3ccnc4ccccc34)oc(=O)c12 [(E)-N-[(S)-1-(5-Methyl-4-oxo-4H-thieno[2,3-d][1,3]oxazin-2-yl)-ethyl]-3-quinolin-4-yl-acrylamide] | 1100 | 19 |
| Cc1csc2nc([C@H](C)NC(=O)/C=C/c3cccc(Cl)c3)oc(=O)c12 [(E)-3-(3-Chloro-phenyl)-N-[(S)-1-(5-methyl-4-oxo-4H-thieno[2,3-d][1,3]oxazin-2-yl)-ethyl]-acrylamide] |  | 42 |
| Cc1csc2nc([C@H](C)NC(=O)/C=C/c3ccc(Br)o3)oc(=O)c12 [(E)-3-(5-Bromo-furan-2-yl)-N-[(S)-1-(5-methyl-4-oxo-4H-thieno[2,3-d][1,3]oxazin-2-yl)-ethyl]-acrylamide] | 180 | 41 |
| Cc1csc2nc([C@H](C)NC(=O)/C=C/c3cc(Br)cs3)oc(=O)c12 [(E)-3-(4-Bromo-thiophen-2-yl)-N-[(S)-1-(5-methyl-4-oxo-4H-thieno[2,3-d][1,3]oxazin-2-yl)-ethyl]-acrylamide] | 1120 | 33 |
| Cc1csc2nc([C@H](C)NC(=O)/C=C/c3ccc(Cl)s3)oc(=O)c12 [(E)-3-(5-Chloro-thiophen-2-yl)-N-[(S)-1-(5-methyl-4-oxo-4H-thieno[2,3-d][1,3]oxazin-2-yl)-ethyl]-acrylamide] | 280 | 17 |
| Cc1ccc(/C=C/C(=O)N[C@@H](C)c2nc3scc(C)c3c(=O)o2)s1 [(E)-N-[(S)-1-(5-Methyl-4-oxo-4H-thieno[2,3-d][1,3]oxazin-2-yl)-ethyl]-3-(5-methyl-thiophen-2-yl)-acrylamide] | 580 | 33 |
| Cc1ccccc1/C=C/C(=O)N[C@@H](C)c1nc2scc(C)c2c(=O)o1 [(E)-N-[(S)-1-(5-Methyl-4-oxo-4H-thieno[2,3-d][1,3]oxazin-2-yl)-ethyl]-3-o-tolyl-acrylamide] |  | 36 |
| Cc1ccsc1/C=C/C(=O)N[C@@H](C)c1nc2scc(C)c2c(=O)o1 [(E)-N-[(S)-1-(5-Methyl-4-oxo-4H-thieno[2,3-d][1,3]oxazin-2-yl)-ethyl]-3-(3-methyl-thiophen-2-yl)-acrylamide] | 670 | 290 |
| Cc1csc2nc([C@H](C)NC(=O)C=C(c3cccs3)c3cccs3)oc(=O)c12 [N-[(S)-1-(5-Methyl-4-oxo-4H-thieno[2,3-d][1,3]oxazin-2-yl)-ethyl]-3,3-di-thiophen-2-yl-acrylamide] | 250 | 42 |
| Cc1csc2nc([C@H](C)NC(=O)/C=C/c3ccc(O)cc3Cl)oc(=O)c12 [(E)-3-(2-Chloro-4-hydroxy-phenyl)-N-[(S)-1-(5-methyl-4-oxo-4H-thieno[2,3-d][1,3]oxazin-2-yl)-ethyl]-acrylamide] |  | 15 |
| CCOc1ccccc1/C=C/C(=O)N[C@@H](C)c1nc2scc(C)c2c(=O)o1 [(E)-3-(2-Ethoxy-phenyl)-N-[(S)-1-(5-methyl-4-oxo-4H-thieno[2,3-d][1,3]oxazin-2-yl)-ethyl]-acrylamide] | 510 | 15 |
| Cc1csc2nc([C@H](C)NC(=O)/C=C/c3ccccn3)oc(=O)c12 [(E)-N-[(S)-1-(5-Methyl-4-oxo-4H-thieno[2,3-d][1,3]oxazin-2-yl)-ethyl]-3-pyridin-2-yl-acrylamide] | 1240 | 170 |

| SMILES | IC50 [1] [nM] | IC50 [2] [nM] |
| --- | --- | --- |
| Cc1csc2nc([C@H](C)NC(=O)/C=C/c3ccc(N(C)C)cc3)oc(=O)c12 [(E)-3-(4-Dimethylamino-phenyl)-N-[(S)-1-(5-methyl-4-oxo-4H-thieno[2,3-d][1,3]oxazin-2-yl)-ethyl]-acrylamide] | 1800 | 38 |
| Cc1csc2nc([C@H](C)NC(=O)/C=C/c3ccsc3)oc(=O)c12 [(E)-N-[(S)-1-(5-Methyl-4-oxo-4H-thieno[2,3-d][1,3]oxazin-2-yl)-ethyl]-3-thiophen-3-yl-acrylamide] |  | 89 |
| Cc1csc2nc([C@H](C)NC(=O)/C=C/c3ccccc3Cl)oc(=O)c12 [(E)-3-(2-Chloro-phenyl)-N-[(S)-1-(5-methyl-4-oxo-4H-thieno[2,3-d][1,3]oxazin-2-yl)-ethyl]-acrylamide] | 380 | 35 |
| COc1cccc(OC)c1/C=C/C(=O)N[C@@H](C)c1nc2scc(C)c2c(=O)o1 [(E)-3-(2,6-Dimethoxy-phenyl)-N-[(S)-1-(5-methyl-4-oxo-4H-thieno[2,3-d][1,3]oxazin-2-yl)-ethyl]-acrylamide] | 21000 | 180 |
| Cc1csc2nc([C@H](C)NC(=O)/C=C/c3ccccc3Br)oc(=O)c12 [(E)-3-(2-Bromo-phenyl)-N-[(S)-1-(5-methyl-4-oxo-4H-thieno[2,3-d][1,3]oxazin-2-yl)-ethyl]-acrylamide] | 380 | 39 |
| Cc1csc2nc([C@H](C)NC(=O)/C=C/c3c(Cl)cccc3Cl)oc(=O)c12 [(E)-3-(2,6-Dichloro-phenyl)-N-[(S)-1-(5-methyl-4-oxo-4H-thieno[2,3-d][1,3]oxazin-2-yl)-ethyl]-acrylamide] | > 34000 | 10 |
| Cc1csc2nc([C@H](C)NC(=O)/C=C/c3sccc3Br)oc(=O)c12 [(E)-3-(3-Bromo-thiophen-2-yl)-N-[(S)-1-(5-methyl-4-oxo-4H-thieno[2,3-d][1,3]oxazin-2-yl)-ethyl]-acrylamide] | 1110 | 58 |
| Cc1csc2nc([C@H](C)NC(=O)/C=C/c3ccc(C=O)cc3)oc(=O)c12 [(E)-3-(4-Formyl-phenyl)-N-[(S)-1-(5-methyl-4-oxo-4H-thieno[2,3-d][1,3]oxazin-2-yl)-ethyl]-acrylamide] | 2400 | 94 |
| Cc1csc2nc([C@H](C)NC(=O)/C=C/c3ccsc3Br)oc(=O)c12 [(E)-3-(2-Bromo-thiophen-3-yl)-N-[(S)-1-(5-methyl-4-oxo-4H-thieno[2,3-d][1,3]oxazin-2-yl)-ethyl]-acrylamide] | 620 | 51 |
| COc1cc(/C=C/C(=O)N[C@@H](C)c2nc3scc(C)c3c(=O)o2)cc(OC)c1 [(E)-3-(3,5-Dimethoxy-phenyl)-N-[(S)-1-(5-methyl-4-oxo-4H-thieno[2,3-d][1,3]oxazin-2-yl)-ethyl]-acrylamide] | 8500 | 21 |
| Cc1csc2nc([C@H](C)NC(=O)/C=C(\c3ccccc3)c3cccs3)oc(=O)c12 [(E)-N-[(S)-1-(5-Methyl-4-oxo-4H-thieno[2,3-d][1,3]oxazin-2-yl)-ethyl]-3-phenyl-3-thiophen-2-yl-acrylamide] | 300 | 16 |
| Cc1csc2nc([C@H](C)NC(=O)/C=C/c3ccc([N+](=O)[O-])s3)oc(=O)c12 [(E)-N-[(S)-1-(5-Methyl-4-oxo-4H-thieno[2,3-d][1,3]oxazin-2-yl)-ethyl]-3-(5-nitro-thiophen-2-yl)-acrylamide] | 900 | 54 |
| Cc1cc(/C=C/C(=O)N[C@@H](C)c2nc3scc(C)c3c(=O)o2)c(C)s1 [(E)-3-(2,5-Dimethyl-thiophen-3-yl)-N-[(S)-1-(5-methyl-4-oxo-4H-thieno[2,3-d][1,3]oxazin-2-yl)-ethyl]-acrylamide] | 230 | 7 |
| Cc1csc2nc([C@H](C)NC(=O)/C=C/c3cccn3C)oc(=O)c12 [(E)-N-[(S)-1-(5-Methyl-4-oxo-4H-thieno[2,3-d][1,3]oxazin-2-yl)-ethyl]-3-(1-methyl-1H-pyrrol-2-yl)-acrylamide] | 220 | 29 |
| Cc1csc2nc([C@H](C)NC(=O)/C=C/c3c(F)cccc3F)oc(=O)c12 [(E)-3-(2,6-Difluoro-phenyl)-N-[(S)-1-(5-methyl-4-oxo-4H-thieno[2,3-d][1,3]oxazin-2-yl)-ethyl]-acrylamide] | 1700 | 60 |
| Cc1csc2nc([C@H](C)NC(=O)/C=C/c3ccc([N+](=O)[O-])cc3)oc(=O)c12 [(E)-N-[(S)-1-(5-Methyl-4-oxo-4H-thieno[2,3-d][1,3]oxazin-2-yl)-ethyl]-3-(4-nitro-phenyl)-acrylamide] | 3600 | 60 |
